Data from ChEMBL document CHEMBL1126416, “Caracasanamide, a novel hypotensive agent from Verbesina caracasana” (Bioorg Med Chem Lett, 1992).

Columns and labels:
Format in all cases: functional, organism-based
[1] = system: Rattus norvegicus; experiment: Concentration at which decrease blood pressure of anesthetized rat when administered intravenously; 50-6400 ug/kg body weight
[2] = system: Rattus norvegicus; experiment: Concentration at which increase cardiac inotropism of anesthetized rat when administered intravenously was observed; 50-6400 ug/kg body weight
[3] = system: Rattus norvegicus; experiment: Concentration at which increase in respiratory frequency of anesthetized rat when administered intravenously was observed; 50-6400 ug/kg body weight
[4] = system: Rattus norvegicus; experiment: Concentration at which increase in tidal volume of anesthetized rat when administered intravenously was observed; 50-6400 ug/kg body weight
[5] = system: Rattus norvegicus; experiment: Concentration at which no change in heart rate of anesthetized rat when administered intravenously was observed; 50-6400 ug/kg body weight

Measured: Concentration

COc1ccc(/C=C\C(=O)NCCCC/N=C(\N)NCC=C(C)C)cc1OC
50 µg/kg: all assays above
